Data set [1] relates to mice. To be noted: cited from earlier work.
Data set [2] can be described thus: Conversion of Formula (I) compounds to HNK upon administration to a subject. The data set is classed as in vivo. To be noted: possible two-step process: hydrolysis under acid conditions, then enzymatic conversion by esterase action. The source says: In this prophetic example, exemplary compounds of Formula (I) yield HNK upon administration to a subject, such as a patient in a clinical trial, in one or more steps. For example, in one possible pathway illustrated in the following schematic, exemplary compounds of Formula (I) may yield HNK in a two-step process, consisting of hydrolysis in Step 1 under acid conditions, such as those in the stomach, and subsequent enzymatic conversion by esterase action.

The structures appear in SMILES notation.

For `N[C@@]1(c2ccccc2Cl)CCC[C@@H](O)C1=O` [(2R,6R)-hydroxynorketamine], the antidepressant activity entry in data set [1] was “has antidepressant activity”. For the compound `CC(O)C1=N[C@@]2(c3ccccc3Cl)CCC[C@@H](O1)C2=O` (stereo partly drawn) [Example 2, (1R,5R)-5-(2-chlorophenyl)-3-(1-hydroxyethyl)-2-oxa-4 azabicyclo[3.3.1]non-3-en-9-one], in data set [2], the “conversion to HNK upon administration” value was “may give rise to HNK and lactic acid”.

Source of the values: patent US10738018B2, “Compounds for therapeutic use” (Dart NeuroScience, LLC, priority 2016, dated 2020).
